{"source": "paper PMC12081876", "about": "“Identification of PTGR2 inhibitors as a new therapeutic strategy for diabetes and obesity” (EMBO Molecular Medicine, 2025)", "key": {"murine PPARγ (mPPARγ)": {"target": "T1, murine PPARγ (mPPARγ) (Mus musculus, UniProt P37238)", "T1 construct": "host or cells: HEK293T", "assay": "LC-MS/MS of covalent binding to mPPARγ overexpressed in HEK293T cells", "conditions": "HEK293T cells overexpressing mPPARγ", "method": "HEK293T cells were transfected with murin PPARγ (mPPARγ) and mPPARγ C313A plasmids for immunoprecipitation, which are Myc-DDK-tagged (OriGene, USA). […] According to the manufacturer’s protocol, proteins were immunoprecipitated using Anti-FLAG® M2 Magnetic Beads (2.5 mg/ml; cat. no. F1804, Sigma-Aldrich). Subsequently, the eluted proteins were separated by SDS-PAGE and subjected to immunoblot analysis. Following separation by SDS-PAGE, proteins were stained with Coomassie blue and SYPRO-Ruby stain. The protein bands of interest were cut out for in-gel tryptic digestion followed by C18 Zip-Tip clean-up (Millipore, USA). For proteomic shotgun identifications, nanoLC-nanoESI-MS/MS analysis was performed on a nanoAcquity system (Waters, USA) connected to the LTQ Orbitrap Velos hybrid MS (Thermo Electron, USA) equipped with a PicoView nanospray interface (New Objective, USA). Samples were loaded onto a C18 BEH column (75 μm × 25 cm length, 130 Å, 1.7 μm particle size) (Waters, USA) and separated by a segmented gradient form in 60 min from 5% to 40% acetonitrile (with 0.1% formic acid) at a constant flow rate of 300 nL/min with a column temperature of 35 °C. The mass spectrometer was operated in the data-dependent mode. […] Protein identification and modification were analyzed using Mascot Daemon (Matrix Science Inc., Chicago). […]"}, "[1]": {"test_system": "HFHSD-fed obese C57BL6/J mice", "assay": "Diet-induced thermogenesis", "type": "in vivo, mouse", "conditions": "for interscapular area temperature, Average: Figure 2S left panel; for interscapular area temperature, Average / inguinal area temperature, Average / rectal temperatures, Average / inguinal area temperature / interscapular area temperature / rectal temperatures: in °C; for inguinal area temperature, Average: Figure 2S middle panel; for rectal temperatures, Average: Figure 2S right panel; for inguinal area temperature / interscapular area temperature / rectal temperatures: Figure 2S, individual mice", "method": "For the cold tolerance test, 24-week-old mice with matched average body weight from the two groups were placed individually on HFHSD in a 4 °C chamber. The rectal temperature of the mice was measured after 0, 1, 2, 3, 4, 5, 6, 12, and 18 h. For measuring diet-induced thermogenesis, 24-week-old mice were fasted overnight for 18 h. Then, we measured their rectal temperature at 0, 30, 60, 90, 120, 150, 180, and 240 min after HFHSD refeeding. The rectal and surface temperature were detected by thermal probes (Physitemp Therma TH-5, ThermoWorks, Alpine and MicroTherma 2T, ThermoWorks, Alpine, respectively)."}, "PPARγ lysine acetylation": {"test_system": "PPARγ lysine acetylation", "assay": "Cell-based PPARγ acetylation assay", "set-up": "species or system mouse", "conditions": "cultured adipocytes", "method": "One day after achieving 100% confluence, 3T3-L1 cells were induced differentiation with 0.5 mM IBMX, 1 µm dexamethasone and 10 μg/mL insulin in DMEM containing 10% FBS for 2 days and maintained differentiation in DMEM supplemented with 10 μg/mL insulin and 10% FBS for 6 days. The medium was changed every 2 days. […] Cells were harvested and lysed in RIPA buffer supplemented with 1X cOmplete™, EDTA-free Protease Inhibitor Cocktail (cat. no. 04693132001, Roche) and 1X PhosSTOP™ (cat. no. 4906845001, Roche). The protein concentrations of cell lysates were measured by Bradford reagent (cat. no. BP500-0006, Bio-Rad). The protein samples were performed immunoprecipitation with magnetic beads (Protein G Mag Sepharose™, Cytiva). Briefly, 200 μg of protein samples were incubated in 500 μl of PBS buffer containing 1 μg of anti-PPARγ antibody or 1 μg of anti-rabbit IgG antibody with gentle rotation at 4 °C overnight. On the next day, PBS-washed beads were incubated with overnight mixture of protein sample and antibody at 4 °C for 1 h with gentle rotation. Then the beads were washed three times with 1000 μl of PBS and harvested with centrifugation at 4 °C and 10,000 × g for 5 min. […] Acetylation level of PPARγ was analyzed using Image J software and normalized against PPARγ."}}, "note": "“And” between values parts separate entries of the source, which are not always exact repeats. Equal entries are not always repeated.", "data": [{"smiles": "CCCCCC(=O)/C=C/[C@H]1[C@H](O)CC(=O)[C@@H]1C/C=C\\CCCC(=O)O", "note": "[15-keto-PGE2, 15-keto-prostaglandin E2]", "values": [{"measurement": "covalent binding site on mPPARγ (LC-MS/MS)", "setting": "murine PPARγ (mPPARγ)", "value": "covalently binds mPPARγ at the Cys313 residue"}, {"measurement": "interscapular, inguinal and rectal temperatures after HFHSD feeding", "setting": "[1]; 40 mg/kg/day ip, vs vehicle", "value": "higher interscapular, inguinal, and rectal temperatures after HFHSD feeding"}, {"measurement": "interscapular area temperature, Average", "setting": "[1]; period 0 min", "value": 36.7067}, {"measurement": "interscapular area temperature, Average", "setting": "[1]; period 30 min", "value": 37.7933}, {"measurement": "interscapular area temperature, Average", "setting": "[1]; period 60 min", "value": 37.6333}, {"measurement": "interscapular area temperature, Average", "setting": "[1]; period 120 min", "value": 37.5133}, {"measurement": "interscapular area temperature, Average", "setting": "[1]; period 180 min", "value": 37.3533}, {"measurement": "interscapular area temperature, Average", "setting": "[1]; period 240 min", "value": 37.1267}, {"measurement": "inguinal area temperature, Average", "setting": "[1]; period 0 min", "value": 35.1463}, {"measurement": "inguinal area temperature, Average", "setting": "[1]; period 30 min", "value": 36.4001}, {"measurement": "inguinal area temperature, Average", "setting": "[1]; period 60 min", "value": 36.234}, {"measurement": "inguinal area temperature, Average", "setting": "[1]; period 120 min", "value": 35.9052}, {"measurement": "inguinal area temperature, Average", "setting": "[1]; period 180 min", "value": 35.7573}, {"measurement": "inguinal area temperature, Average", "setting": "[1]; period 240 min", "value": 35.4703}, {"measurement": "rectal temperatures, Average", "setting": "[1]; period 0 min", "value": 36.6549}, {"measurement": "rectal temperatures, Average", "setting": "[1]; period 30 min", "value": 37.7723}, {"measurement": "rectal temperatures, Average", "setting": "[1]; period 60 min", "value": 37.6257}, {"measurement": "rectal temperatures, Average", "setting": "[1]; period 120 min", "value": 37.398}, {"measurement": "rectal temperatures, Average", "setting": "[1]; period 180 min", "value": 37.3676}, {"measurement": "rectal temperatures, Average", "setting": "[1]; period 240 min", "value": 37.1984}, {"measurement": "inguinal area temperature", "setting": "[1]; period 0 min", "value": "35.4 and 35.2 and 34.79 and 34.8 and 34.56 and 35 and 35.185 and 35.735 and 36 and 34.735 and 35.25 and 35.645 and 34.88 and 34.815"}, {"measurement": "interscapular area temperature", "setting": "[1]; period 0 min", "value": "36.9 and 37.4 and 36.4 and 36.8 and 36.6 and 37.8 and 35.4 and 36.2 and 37"}, {"measurement": "rectal temperatures", "setting": "[1]; period 0 min", "value": "36.805 and 37.06 and 36.54 and 36.445"}, {"measurement": "inguinal area temperature", "setting": "[1]; period 30 min", "value": "36.955 and 36.815 and 36.705 and 36.42 and 36.0964 and 35.905 and 36.6 and 35.865 and 35.975 and 36.115 and 36.825 and 36.785 and 36.43 and 36.095 and 36.415"}, {"measurement": "interscapular area temperature", "setting": "[1]; period 30 min", "value": "38.1 and 38.2 and 37.6 and 37.2 and 37.5 and 37.7 and 37.9 and 37.8"}, {"measurement": "rectal temperatures", "setting": "[1]; period 30 min", "value": "38.255 and 38.275 and 37.755 and 37.72"}, {"measurement": "inguinal area temperature", "setting": "[1]; period 60 min", "value": "36.755 and 36.7 and 36.085 and 36.255 and 36.2 and 35.5 and 35.9 and 35.67 and 36.1 and 36.955 and 36.3 and 36.545 and 36.31 and 35.98"}, {"measurement": "interscapular area temperature", "setting": "[1]; period 60 min", "value": "38 and 38.3 and 37.8 and 37.5 and 37.7 and 37.4 and 37.6 and 37.2"}, {"measurement": "rectal temperatures", "setting": "[1]; period 60 min", "value": "38.085 and 37.94 and 37.88 and 37.79"}, {"measurement": "inguinal area temperature", "setting": "[1]; period 120 min", "value": "36.81 and 36.5 and 36.135 and 35.755 and 36.1679 and 35.38 and 35.6 and 35.29 and 35.4 and 36.16 and 36.2 and 35.9 and 36.075 and 35.355 and 35.85"}, {"measurement": "interscapular area temperature", "setting": "[1]; period 120 min", "value": "37.7 and 38.2 and 37.9 and 37.6 and 37.2 and 37.1 and 37.5 and 37.4 and 37.3"}, {"measurement": "rectal temperatures", "setting": "[1]; period 120 min", "value": "37.95 and 37.965 and 37.615"}, {"measurement": "inguinal area temperature", "setting": "[1]; period 180 min", "value": "36.105 and 36.3 and 36.27 and 35.585 and 35.8 and 35.3 and 35.4 and 35.7 and 36.1 and 35.765 and 35.535"}, {"measurement": "interscapular area temperature", "setting": "[1]; period 180 min", "value": "37.5 and 38.4 and 37.6 and 37.4 and 36.5 and 37.2 and 37.1 and 36.9 and 37 and 37.8"}, {"measurement": "rectal temperatures", "setting": "[1]; period 180 min", "value": "37.665 and 37.81 and 37.52"}, {"measurement": "inguinal area temperature", "setting": "[1]; period 240 min", "value": "35.995 and 36.065 and 35.575 and 35.82 and 35.715 and 35.26 and 35.2 and 35.6 and 36.2 and 35.1 and 35.12 and 34.905"}, {"measurement": "interscapular area temperature", "setting": "[1]; period 240 min", "value": "37.1 and 37.5 and 37 and 37.2 and 37.3 and 36.2 and 36.8 and 37.4 and 36.6"}, {"measurement": "rectal temperatures", "setting": "[1]; period 240 min", "value": "37.705 and 37.57 and 37.21"}, {"measurement": "acetylation of the PPARγ LBD", "setting": "PPARγ lysine acetylation", "value": "no altered acetylation of the PPARγ LBD"}]}]}
